Test results taken from PubChem BioAssay (NCI).
Where “and” joins values, the source holds several entries; their conditions need not be identical. Equal entries are not always repeated.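 Results reflect a 48-hour exposure of cells in 96-well plates to compound at five concentrations. GI50 is the concentration that inhibits growth by half. TGI denotes the concentration required for complete inhibition of growth.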

How the values were obtained:
Assay in all cases: NCI anticancer screen, dose series, 48 h
A498 renal = test system: A498 renal
ACHN renal = test system: ACHN renal
COLO 205 colon = test system: COLO 205 colon
HCC-2998 colon = test system: HCC-2998 colon
HCT-116 colon = test system: HCT-116 colon
MALME-3M melanoma = test system: MALME-3M melanoma
MDA-MB-435 = test system: MDA-MB-435
SNB-19 CNS = test system: SNB-19 CNS
UACC-62 melanoma = test system: UACC-62 melanoma
UO-31 renal = test system: UO-31 renal

Row | Compound | TGI (A498 renal) | TGI (ACHN renal) | TGI (COLO 205 colon) | TGI (HCC-2998 colon) | TGI (HCT-116 colon) | TGI (MALME-3M melanoma) | TGI (MDA-MB-435) | TGI (SNB-19 CNS) | TGI (UACC-62 melanoma) | TGI (UO-31 renal) | GI50 (A498 renal) | GI50 (ACHN renal) | GI50 (COLO 205 colon) | GI50 (HCC-2998 colon) | GI50 (HCT-116 colon) | GI50 (MALME-3M melanoma) | GI50 (MDA-MB-435) | GI50 (SNB-19 CNS) | GI50 (UACC-62 melanoma) | GI50 (UO-31 renal)
1 | CC(C)c1cc2c(cc1S(=O)(=O)O)[C@@]1(C)CCC[C@@](C)(C(=O)O)C1CC2 (stereo partly specified) | > 100000 nM | > 100000 nM | > 100000 nM | > 100000 nM | > 100000 nM | > 100000 nM | > 100000 nM | > 100000 nM | > 100000 nM | > 100000 nM | – | – | – | – | – | – | – | – | – | –
2 | N#CC(C#N)=C/C=C(\Sc1nc2ccccc2s1)c1ccc(Cl)cc1 | 28600 nM | > 35500 nM | > 27700 nM | 29000 nM | 5780 nM | 16500 nM | 11100 nM | > 41200 nM | 29400 nM | 29300 nM | 8260 nM | 4610 nM | 3260 nM | 13800 nM | 2140 nM | 5290 nM | 2860 nM | 8120 nM | 8890 nM | 7850 nM
3 | CCC(=C/[C@H](C)C/C=C/C(C)=C/[C@@H](C)C(=O)[C@@H](C)[C@H](O)[C@@H](C)CC)/C=C/[C@H]1OC(=O)C=C[C@@H]1C | < 10 nM | 566 nM | 345 nM | < 10 nM | 10.6 nM | 175 nM | < 18.4 nM | 2120 nM | 276 nM | 1870 nM | < 10 nM | < 10 nM | < 10 nM | < 10 nM | < 10 nM | < 10 nM | < 10 nM | < 10 nM | < 10 nM | < 10 nM
4 | C/C(=C\CBr)CCC(Br)C(C)(C)Br (stereo unspecified) | > 100000 nM | > 100000 nM | > 100000 nM | > 100000 nM | > 100000 nM | > 100000 nM | > 100000 nM | > 100000 nM | > 100000 nM | > 100000 nM | – | – | – | – | – | – | – | – | – | –
5 | O=C(Nc1ccc(Oc2ccc(Nc3nc4ccccc4s3)cc2)cc1)Nc1ccc(Cl)c(C(F)(F)F)c1 | 3160 nM | 5490 nM | 3250 nM | 3910 nM | 2610 nM | 3790 nM | 3000 nM | 3620 nM | 2570 nM | 2820 nM | 1460 nM | 1510 nM | 1640 nM | 1870 nM | 1310 nM | 1800 nM | 1480 nM | 1710 nM | 1230 nM | 1220 nM
6 | CCN1C(=O)N(c2ccccc2)C2NC(=S)N(/N=C/C=C/c3ccccc3OC)C21 (stereo unspecified) | 653 nM | > 60800 nM | 487 nM | > 100000 nM | > 32700 nM | > 100000 nM | 155 nM | > 52900 nM | > 100000 nM | > 100000 nM | 31.1 nM | 134 nM | 210 nM | 111 nM | 105 nM | 722 nM | 35.6 nM | 133 nM | 69.8 nM | 486 nM
7 | CCCCCCCCCCCCCCCC[N+](C)(C)Cc1ccccc1 | 6300 nM and 4830 nM | 7960 nM and 6530 nM | 3240 nM | 2380 nM | – | 2720 nM | 2910 nM | – | 2980 nM | 22800 nM and 8180 nM | 1920 nM and 1870 nM | 2430 nM and 2360 nM | 1650 nM | 923 nM | – | 1240 nM | 1540 nM | – | 1360 nM | 2980 nM and 2010 nM
